Experiments:
FaDu = test: Anticancer activity against human FaDu cells assessed as cell growth inhibition measured after 48 hrs; format: functional, cell-based; conditions: Homo sapiens, FaDu, 48 h
HCT-116 = test: Anticancer activity against human HCT-116 cells assessed as cell growth inhibition measured after 48 hrs by MTT assay; format: functional, cell-based; conditions: HCT-116, 48 h
HepG2 [1] = test: Anticancer activity against human HepG2 cells assessed as cell growth inhibition measured after 48 hrs by MTT assay; format: functional, cell-based; conditions: HepG2, 48 h
PC-3 = test: Anticancer activity against human PC-3 cells assessed as cell growth inhibition measured after 48 hrs by MTT assay; format: functional, cell-based; conditions: PC-3, 48 h
MCF7 [2] = test: Anticancer activity against human MCF7 cells assessed as cell growth inhibition at 100 uM by MTT assay relative to control; format: functional
A549 [3] = test: Anticancer activity against human A549 cells assessed as cell growth inhibition at 100 uM by MTT assay relative to control; format: functional
HepG2 [4] = test: Anticancer activity against human HepG2 cells assessed as cell growth inhibition at 100 uM by MTT assay relative to control; format: functional
A-431 = test: Anticancer activity against human A-431 cells assessed as cell growth inhibition at 100 uM by MTT assay relative to control; format: functional
MCF7 [5] = test: Anticancer activity against human MCF7 cells assessed as cell growth inhibition measured after 48 hrs by MTT assay; format: functional, cell-based; conditions: MCF7, 48 h
A549 [6] = test: Anticancer activity against human A549 cells assessed as cell growth inhibition measured after 48 hrs by MTT assay; format: functional, cell-based; conditions: A549, 48 h

Row | Structure (SMILES) | inhibition at 100 µM (MCF7 [2]) [%] | inhibition at 100 µM (A549 [3]) [%] | inhibition at 100 µM (HepG2 [4]) [%] | inhibition at 100 µM (A-431) [%] | further results
1 | O=C1Nc2ccccc2C12N[C@H](Cc1ccccc1)[C@@H](c1ccc(Br)cc1)[C@@]21CN(/C=C/c2ccccc2)C/C(=C\c2ccc(Br)cc2)C1=O (stereo partly specified) |  |  |  |  | IC50 (FaDu): ≥ 19 µM
2 | O=C(/C=C/c1cccs1)[C@H]1[C@H](c2cccs2)[C@H]2CSCN2[C@]12C(=O)Nc1ccccc12 |  |  |  |  | IC50 (HCT-116): 1.57 µM; IC50 (HepG2 [1]): ≥ 1.5 µM; IC50 (PC-3): ≥ 0.8 µM
3 | CCCCCCCCCCCCCCCC(=O)N1CC[C@@H](OP(=O)([O-])OCC[N+](C)(C)C)C1 | 22.6 | 4.7 | 10.1 | 0.3 | 
4 | Cc1ccc(/C=C2\CN(/C=C/c3ccccc3)C[C@]3(C2=O)[C@H](c2ccc(C)cc2)[C@@H](Cc2ccccc2)NC32C(=O)Nc3ccccc32)cc1 (stereo partly specified) |  |  |  |  | IC50 (FaDu): ≥ 19 µM
5 | Cc1ccc([C@@H]2[C@H]3CSCN3[C@]3(C(=O)Nc4ccccc43)[C@H]2C(=O)/C=C/c2ccccc2)cc1 |  |  |  |  | IC50 (HCT-116): 1.57 µM; IC50 (HepG2 [1]): ≥ 1.5 µM; IC50 (PC-3): ≥ 0.8 µM
6 | O=C(/C=C/c1ccc2ccccc2c1)[C@H]1[C@H](c2ccc3ccccc3c2)[C@H]2CSCN2[C@]12C(=O)Nc1ccccc12 |  |  |  |  | IC50 (HCT-116): 1.57 µM; IC50 (HepG2 [1]): ≥ 1.5 µM; IC50 (PC-3): ≥ 0.8 µM
7 | O=C1Nc2ccccc2C12N[C@H](Cc1ccccc1)[C@@H](c1ccc(Cl)cc1Cl)[C@@]21CN(/C=C/c2ccccc2)C/C(=C\c2ccc(Cl)cc2Cl)C1=O (stereo partly specified) |  |  |  |  | IC50 (FaDu): 22 µM
8 | CCCCCCCC/C=C\CC(=O)N1CCC[C@@H]1COP(=O)([O-])OCC[N+](C)(C)C | 93 | 4.7 | 10.1 | 0.3 | 
9 | CCCCCCCCCCCCCCCCCC/C=C\CCCCCCCC(=O)N1CCC[C@H]1OP(=O)([O-])OCC[N+](C)(C)C | 22.6 | 4.7 | 10.1 | 0.3 | 
10 | Cc1ccc(/C=C/C(=O)[C@H]2[C@H](c3ccc(C)cc3)[C@H]3CSCN3[C@]23C(=O)Nc2ccccc23)cc1 |  |  |  |  | IC50 (HCT-116): 1.57 µM; IC50 (HepG2 [1]): ≥ 1.5 µM; IC50 (PC-3): ≥ 0.8 µM
11 | COc1ccccc1/C=C1\CN(/C=C/c2ccccc2)C[C@]2(C1=O)[C@H](c1ccccc1OC)[C@@H](Cc1ccccc1)NC21C(=O)Nc2ccccc21 (stereo partly specified) |  |  |  |  | IC50 (FaDu): ≥ 19 µM
12 | O=C(CN1CCCC1)Nc1cc2ccccc2oc1=O |  |  |  |  | IC50 (MCF7 [5]): 4.8 µM; IC50 (A549 [6]): 1.8 µM
13 | O=C(/C=C/c1ccc(F)cc1)[C@H]1[C@H](c2ccc(F)cc2)[C@H]2CSCN2[C@]12C(=O)Nc1ccc(Cl)cc12 |  |  |  |  | IC50 (HCT-116): 1.57 µM; IC50 (HepG2 [1]): ≥ 1.5 µM; IC50 (PC-3): ≥ 0.8 µM
14 | N#C[C@H]1CCCN1CC(=O)Nc1cc2ccccc2oc1=O |  |  |  |  | IC50 (MCF7 [5]): 4.37 µM; IC50 (A549 [6]): 4.37 µM
15 | CCCCCCCC/C=C\CC(=O)N1CCC[C@H]1COP(=O)([O-])OCC[N+](C)(C)C | 91 | 4.7 | 10.1 | 0.3 | 
16 | CCCCCC/C=C\CCCCCCCC(=O)N1CC[C@H](OP(=O)([O-])OCC[N+](C)(C)C)C1 | 22.6 | 4.7 | 10.1 | 0.3 | 
17 | CCCCCC/C=C\CCCCCCCC(=O)N1CCC[C@H]1OP(=O)([O-])OCC[N+](C)(C)C | 22.6 | 4.7 | 10.1 | 0.3 | 
18 | CCCCCCCCCCCCCCCCCC/C=C\CCCCCCCC(=O)N1CCC[C@@H]1OP(=O)([O-])OCC[N+](C)(C)C | 22.6 | 4.7 | 10.1 | 0.3 | 
19 | CCCCCCCCCCCCCCCCC/C=C\CCCCCCCC(=O)N1CC[C@H](OP(=O)([O-])OCC[N+](C)(C)C)C1 | 22.6 | 4.7 | 10.1 | 0.3 | 
20 | CCCCCCCC/C=C\CC(=O)N1CC[C@H](OP(=O)([O-])OCC[N+](C)(C)C)C1 | 22.6 | 4.7 | 10.1 | 0.3 | 
21 | Cc1cc(=O)oc2cc(NC(=O)[C@@H]3CCCN3S(=O)(=O)c3ccc(Cl)cc3)ccc12 |  |  |  |  | IC50 (MCF7 [5]): 7.05 µM; IC50 (A549 [6]): 27.3 µM
22 | CCCCCCCCCCCCCCCC(=O)N1CC[C@H](COP(=O)([O-])OCC[N+](C)(C)C)C1 | 74.6 | 71.6 | 57.3 | 74.2 | 
23 | COc1ccc(/C=C/C(=O)[C@H]2[C@H](c3ccc(OC)cc3)[C@H]3CSCN3[C@]23C(=O)Nc2ccccc23)cc1 |  |  |  |  | IC50 (HCT-116): 1.57 µM; IC50 (HepG2 [1]): ≥ 1.5 µM; IC50 (PC-3): ≥ 0.8 µM
24 | O=C(/C=C/c1ccc(F)cc1)[C@H]1[C@H](c2ccc(F)cc2)[C@H]2CSCN2[C@]12C(=O)Nc1ccccc12 |  |  |  |  | IC50 (HCT-116): 1.57 µM; IC50 (HepG2 [1]): ≥ 1.5 µM; IC50 (PC-3): ≥ 0.8 µM
25 | CCCCCCCCCCCCCCCCC/C=C\CCCCCCCC(=O)N1CC[C@@H](OP(=O)([O-])OCC[N+](C)(C)C)C1 | 22.6 | 4.7 | 10.1 | 0.3 | 
26 | Cc1cccc(/C=C2\CN(/C=C/c3ccccc3)C[C@]3(C2=O)[C@H](c2cccc(C)c2)[C@@H](Cc2ccccc2)NC32C(=O)Nc3ccccc32)c1 (stereo partly specified) |  |  |  |  | IC50 (FaDu): 21.8 µM
